Source: patent US20250289800A1, “Selective Parp1 Inhibitor And Application Thereof” (Kangbaida (Sichuan) Biotechnology Co., Ltd., priority 2021, published 2025)

Experiments:
DLD-1 BRCA2−/− cells = test: DLD-1 BRCA2−/− cell proliferation inhibition experiment; assay type: cell-based; conditions: Homo sapiens, 168 h, 7 d, CellTiter-Glo
Description: 3.1 DLD-1 BRCA2^−/− Cell Proliferation Inhibition Experiment Epithelial cell line DLD-1 BRCA2^−/− from human colorectal adenocarcinoma (Horizon Discovery Ltd., Cat No.: HD105-007) was cultured in an RPMI-1640 medium containing 10% FBS, 1% penicillin-streptomycin solution, 1% L-G and 0.1 mg/mL hygromycin at 37° C. and 5% CO2. By means of cell counting, 1000 DLD-1 BRCA2^−/− cells were seeded into each well of a 96-well plate and cultured overnight. Test compounds (2-fold gradient dilution, starting at the highest dose: 10 μM, a total of 9 gradient concentrations) were added the next day. Moreover, blank control wells containing DMSO at the same concentration were set. The cells were cultured at 37° C. and 5% CO2 for 7 d, CellTiter-Glo® Reagent was then added, and the chemiluminescence values were determined using a microplate reader. The IC50 value was calculated using GraphPad Prism 8 software.

MDA-MB-436 cells = test: MDA-MB-436 cell proliferation inhibition experiment; assay type: cell-based; conditions: Homo sapiens, 168 h, 7 d, Celltiter Glo
Description: Human breast cancer cell line MDA-MB-436 (supplier: ATCC, Cat #HTB-130) was cultured in an L15 medium containing 10% FBS and 1% penicillin-streptomycin solution at 37° C. and 5% CO2. By means of cell counting, 400 MDA-MB-436 cells were seeded into each well of a 384-well plate and cultured overnight. […] Moreover, blank control wells containing 0.1% DMSO were set. The cells were cultured at 37° C. and 5% CO2 for 7 d, a Celltiter Glo assay kit detection solution was then added, and the chemiluminescence values were determined using a microplate reader. The IC50 value was calculated using GraphPad Prism 8 software.

[1] = tested on: monolayer MDCK-MDR1 cells; test: Bidirectional permeability evaluation with MDCK-MDR1 cell model; assay type: in vitro ADME; conditions: 1 μM test compound, 37° C., 2 h
Description: In this experiment, monolayer MDCK-MDR1 cells were used and incubated in a 96-well Transwell plate. A transport buffer containing 1 μM test compound was added to an appropriate administration end well on the apical or basal side, and a DMSO-containing transport buffer was added to an appropriate receiving end well. After incubation at 37° C. for 2 h, the cell plate was removed, the samples (50 μL each) were collected from the top and bottom ends and transferred to a new 96-well plate, and the protein was precipitated by subsequently adding acetonitrile. The samples were analyzed using LC-MS/MS and the concentration of the test compound was determined. The concentration data were used to calculate the apparent permeability coefficients of the transport from the apical side to the basal side and from the basal side to the apical side of the monolayer cells so as to calculate the efflux rate. The integrity of the monolayer cells was assessed by the leakage of Lucifer Yellow after 2 h of incubation.

[2] = Pharmacokinetic test in mice; assay type: in vivo; conditions: ICR mice, oral administration (1 mg/kg), plasma
Description: An appropriate amount of the test compound was precisely weighed and formulated into a 0.1 mg/mL solution with 30% DMSO and 30% HP-β-CD for intravenous injection, and the test compound was formulated into a 0.1 mg/mL solution with 0.5% MC for intragastric administration. Healthy adult male ICR mice were fasted overnight and then given the test compound via intravenous injection (0.5 mg/kg) and intragastric administration (1 mg/kg). Blood (anticoagulated with heparin sodium) was collected from the forelimb vein at different time points (0.083 h, 0.25 h, 0.5 h, 1 h, 2 h, 4 h, 8 h and 24 h) after administration. The blood samples were separated by centrifugation at 6800 g at 4° C. for 10 min to obtain plasma, and all the samples were stored at −80° C. for later testing. The concentration of the prototype drug in plasma was determined by an LC-MS/MS method, and the main pharmacokinetic parameters were calculated using Phoenix WinNonlin7.0.

Compound	IC50 (DLD-1 BRCA2−/− cells)	IC50 (MDA-MB-436 cells)	also measured
CCc1cc2ncc(CN3CCN(c4ccc(C#N)nc4)CC3)cc2[nH]c1=O [Compound 4, 5-(4-((7-ethyl-6-oxo-5,6-dihydro-1,5-naphthyridin-3-yl)methyl)piperazin-1-yl)picolinonitrile]	5.4 nM		
CCc1cc2ncc(CN3CCN(c4ccc(-c5cnn(C)c5)cn4)CC3)cc2[nH]c1=O [Compound 21, 3-ethyl-7-((4-(5-(1-methyl-1H-pyrazol-4-yl)pyridin-2-yl)piperazin-1-yl)methyl)-1,5-naphthyridin-2(1H)-one]		27.8 nM	
CCc1cc2ncc(CN3CCN(c4ccc(Cl)cn4)CC3)cc2[nH]c1=O [Compound 10, 7-((4-(5-chloropyridin-2-yl)piperazin-1-yl)methyl)-3-ethyl-1,5-naphthyridin-2(1H)-one]		12.1 nM	
CCc1cc2ncc(CN3CCN(c4ccc(F)cn4)CC3)cc2[nH]c1=O [Compound 3, 3-ethyl-7-((4-(5-fluoropyridin-2-yl)piperazin-1-yl)methyl)-1,5-naphthyridin-2(1H)-one]	3.3 nM	11.1 nM	
CCc1cc2ncc(CN3CCN(c4ccc(C#N)cc4F)CC3)cc2[nH]c1=O [Compound 1, 4-(4-((7-ethyl-6-oxo-5,6-dihydro-1,5-naphthyridin-3-yl)methyl)piperazin-1-yl)-3-fluorobenzonitrile]	1.7 nM	12.2 nM	
CCc1cc2ncc(CN3CCN(c4ccc(C(F)F)cn4)CC3)cc2[nH]c1=O [Compound 24, 7-((4-(5-(difluoromethyl)pyridin-2-yl)piperazin-1-yl)methyl)-3-ethyl-1,5-naphthyridin-2(1H)-one]		8.3 nM	
CCc1cc2ncc(CN3CCN(c4ccc(C(=O)NC)nc4)CC3)cc2[nH]c1=O [Comparative example 1]			MDCK-MDRII Papp (A-B) (10−6, cm/s) ([1]; apical to basal): 3.38 10−6, cm/s; MDCK-MDRII Papp (B-A) (10−6, cm/s) ([1]; basal to apical): 43.78 10−6, cm/s; AUC0-t [2]: 47560 ng·h/mL; Cmax [2]: 5410 ng/mL; T1/2 [2]: 6.25 h
